Source: patent US20240139153A1, “Inhibition of Endothelial ETS Family Transcription Factors Promotes Flow-Dependent Ocular Vessel Regression” (Oklahoma Medical Research Foundation, priority 2020, published 2024)

Experiments:
hyaloid vessels = test: Hyaloid vessel regression after intravitreal injection; assay type: in vivo, mice; details: intravitreal injection at P5, assessed at P7, versus vehicle-injected littermate controls; final concentration ~10 μmol/L in vitreous
Procedure: Hyaloid Dissection and Quantification. Hyaloid were dissected and quantified as described previously. Briefly, eyes were enucleated from P4-P8 mice and fixed for 30 min in 4% paraformaldehyde (PFA). The eyes were then transferred to PBS and dissected by removal of the lens and sclera leaving the retinal cup in which the hyaloids were loosely wrapped around the lens. The lens was then carefully removed from which the hyaloids were gently removed. The hyaloids were then transferred in a drop of PBS and flat mounted for imaging by carefully removing the remaining PBS.
Quantification of hyaloid regression was accomplished by drawing an outline of hyaloid flat mounts (labeled with Isolectin-B4) which was then decreased in size by 50% and centered over the hyaloid flat mount. Blind counts of hyaloid vessel number were performed by counting the number of vessels which crossed the 50% outline.
Hyperthermia-induced anesthesia of wild type P5 mice was accomplished by submerging pups in ice for 5-8 min after placing them in a latex blanket wrapped in foil to avoid direct contact between the pup and ice. Once anesthetized (assessed by toe pinch) eyes were administered a drop of proparacaine hydrochloride ophthalmic solution (Akorn), followed by gentle exposure of the eye globe. […] Eyelids were then reclosed around the eye, and erythromycin ophthalmic ointment (Akorn) was applied. […]

3D HUVEC cultures = test: Vasculogenic 3D collagen assay, regression of 3D lumenized HUVEC cultures; assay type: cell-based, Human
Procedure: Vasculogenic 3D collagen assays. Human Umbilical Vein ECs were purchased from Lonza and used from passages 3 to 6 as previously described^42,43. ECs were suspended in 2.5 mg/mL collagen type I matrices, and assays were performed as described^42,43. With the exception that the culture media contained reduced serum supplement (RSII), ascorbic acid, FGF-2, Stem cell factor (SCF) at 40 ng/ml and interleukin-3 (IL-3) were added at 40 ng/ml. Stromal-derived factor-1α (SDF-1α) was added at 200 ng/ml into collagen type I matrices. Cultures were incubated at 37° C. in serum-free defined media and allowed to assemble over time. Cultures were fixed at 72 hr with 3% glutaraldehyde before staining with 0.1% toluidine blue in 30% methanol for nonfluorescent visualization. Lumen area was quantified by using Metamorph software as previously described^42,43. Individual data points were obtained from a triplicate wells and a minimum of 12 independent fields from these wells.
Bioassays with pharmacologic agents and cytokines. […] In some assays, triplicate wells were lysed with sample buffer and Western blots were performed to probe for pro-caspase 3 and actin.
YK-4-279 promotes flow-dependent vascular regression in vitro. […] Importantly, this culture model recapitulates many aspects of in vivo vessel morphology and has previously been used to model vascular regression^40.

HUVECs = test: HUVEC flow chamber study, static versus flow; assay type: cell-based, Human
Procedure: Cell Culture/Flow Studies. Flow-based cell culture was performed using HUVECs (ATCC; #PCS-100-010) cultured in complete EGM-2 media (Lonza). HUVECs were cultured on Ibidi Luer^0,6 flow slides and allowed to grow at 37° C. in 5% CO2 for 24 h to a confluency of 80-90%. Slides were then attached to an Ibidi pump system with Perfusion Set Red (1.6 mm, #10962) and exposed to a sheer stress of 10 dyn/cm^2 for 24 h. Static conditions were achieved by similarly plating HUVECs in flow slides that were not exposed to flow. […] Cells were gently washed with 1 mL ice-cold PBS, then fixed and permeabilized by incubation with ice-cold methanol for 5 min. Fixed cells were treated with 1% BSA, 0.02% Triton X-100 for 1 hr at room temperature. Primary and secondary antibodies were added in 1% BSA and incubated for 2 hr at room temperature.
HUVECs grown in this 3D culture model form vascular lumens despite the absence of blood flow. […] This possibility is supported by a recent report that the transcriptional consequences of ERG inhibition are greatly mitigated in ECs exposed to sheer stress^58.

healthy retinal vessels = test: Healthy retinal vessels of adult wild type mice after intravitreal injection; assay type: in vivo; details: 48 hr after intraocular injection
Text: Vascular length (FIG. 8B; n=4) and branch points (FIG. 8C; n=4) from retinas treated as in (FIG. 8A) were quantified using AutoTube and normalized to retinal area per image. NS=not significant (two-tailed Student's t-test). Error bars=S.D.

retinal neovessels = details: OIR mice
Text: OIR Studies/Quantification. […] Generally, pups with their dams were maintained in room air from birth until P7. From P7 to P12 pups were exposed to 75% O2 in an oxygen chamber regulated by an OxyCycler Model A84. After 2.5 d of oxygen exposure, the dams were replaced with healthy lactating dams to prevent oxygen toxicity. At P12 pups were returned to room air until P18.
Two days after the injection, P20 mice were euthanized and retinas were dissected and immunostained for CD31 to quantify retinal vascular area as previously described^45.

ROP = details: intravitreal injection, randomized study; cited from earlier work
[1] = inhibitor-injected eye relative to control eye

active caspase-3 staining (HUVECs; flow conditions, 10 dyn/cm^2)	active caspase-3 staining (HUVECs; static conditions, 5 μM, 24 hr)	effects on retinal vascularization (vascular length, branch points) (healthy retinal vessels)	Molecule	reduction in hyaloid vessel number (hyaloid vessels) [%]	concentrations giving significant, dose-dependent loss of vascular luminal area (3D HUVEC cultures; 3D HUVEC cultures, 48 h treatment, toluidine blue stain)	pro-caspase 3 signal (Western blot) (3D HUVEC cultures; 3D HUVEC cultures, FIG. 5C)	extent of vascular regression (3D HUVEC lumen area) on co-incubation with cytokines (3D HUVEC cultures; co-incubation of TNFα or IL1β with YK-4-279, versus YK-4-279 alone)	alignment of HUVECs in the direction of flow (HUVECs; flow conditions, 10 dyn/cm^2)	cell number (HUVECs; flow conditions, 10 dyn/cm^2)	cell number (HUVECs; static conditions, 5 μM, 24 hr)	mice showing an increase in neovessels (retinal neovessels; [1])	mice with a decrease in retinal neovascular area (retinal neovessels; [1])	decrease in the retinal avascular area (retinal neovessels; intravitreal injection at P18, analysed at P20, versus vehicle) [%]	reduction in retinal neovascular area (retinal neovessels; intravitreal injection at P18, analysed at P20, versus vehicle-injected contralateral eye) [%]	efficacy versus conventional laser-based therapy for treating ROP (ROP)
no apparent effect	increased active caspase-3 staining	no effects	COc1ccc(C(=O)CC2(O)C(=O)Nc3c(Cl)ccc(Cl)c32)cc1 (stereo not drawn) [YK-4-279]	~40	greater than 1.25 μM	Reduced pro-caspase 3 signal	further increases the extent of vascular regression	inhibited the alignment	no apparent effect	significantly reduced cell numbers	one	9 out of 11	~60	~40	
			bevacizumab: a monoclonal VEGF-A antibody												more effective
